The values below come from US10710986B2, “PD-1/PD-L1 inhibitors” (Gilead Sciences, Inc., priority 2018, dated 2020).

The target of this test is PD-1/PD-L1 (Homo sapiens (Human), UniProt Q9NZQ7). Nature of the test: PD-1/PD-L1 biochemical protein-protein interaction assay (ALPHA). Particulars: 0.3 nM His tagged PD-L1, 2.5 nM biotinylated Fc-PD-1, 60 minutes at 25° C., read-out: IC50 PD-L1-PD1.

The IC50 is the midpoint of a concentration-inhibition curve.

PD-1/PD-L1, sequence (Q9NZQ7 19-238): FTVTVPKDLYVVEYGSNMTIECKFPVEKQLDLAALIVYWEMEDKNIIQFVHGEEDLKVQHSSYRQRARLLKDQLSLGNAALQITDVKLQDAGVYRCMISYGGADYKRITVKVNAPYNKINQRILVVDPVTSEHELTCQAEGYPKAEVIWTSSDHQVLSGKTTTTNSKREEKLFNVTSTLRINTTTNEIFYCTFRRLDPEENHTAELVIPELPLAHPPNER

Take `COc1nc(-c2cccc(-c3cccc(-c4cnc(CN[C@H](C)[C@@H]5CCC(=O)N5)c(OC)n4)c3Cl)c2Cl)cnc1CN[C@H](C)[C@@H]1CCC(=O)N1` [compound 601]: the IC50 amounted to 0.196 nM. Next, `COc1nc(-c2cccc(-c3cccc(-c4cnc5c(CN6CCC7(CCC(=O)N7)C6)cn(C)c5n4)c3Cl)c2Cl)cnc1CNC[C@H]1CCC(=O)N1` (stereo partly shown) [compound 602]: 0.145 nM; `COc1nc(-c2cccc(-c3cccc(-c4cnc5c(CNC[C@H]6C[C@H](O)C6)cn(C)c5n4)c3Cl)c2Cl)cnc1CNC[C@H]1CCC(=O)N1` [compound 603]: 0.073 nM. Next, `COc1nc(-c2cccc(-c3cccc(-c4cnc5c(CN6CC7(C6)CN(C(C)=O)C7)cn(C)c5n4)c3Cl)c2Cl)cnc1CNC[C@H]1CCC(=O)N1` [compound 604]: 0.064 nM; `COc1nc(-c2cccc(-c3cccc(-c4cnc5c(CN6CC7(CNC(=O)C7)C6)cn(C)c5n4)c3Cl)c2Cl)cnc1CNC[C@H]1CCC(=O)N1` [compound 605]: 0.113 nM; `COc1nc(-c2cccc(-c3cccc(-c4cnc5c(CNC[C@@H]6CCC(=O)N6)cn(C)c5n4)c3Cl)c2Cl)cnc1CNC[C@H]1CCC(=O)N1` [compound 606]: 0.077 nM. On to `COc1nc(-c2cccc(-c3cccc(-c4cnc5c(CN6CC7(CNC(=O)C7)C6)cn(C)c5n4)c3Cl)c2Cl)cnc1CN1CC2(CNC(=O)C2)C1` [compound 607], for which the IC50 came out at 0.064 nM. Next, `CCn1cc(CN2CC3(C2)CN(C(C)=O)C3)c2ncc(-c3cccc(-c4cccc(-c5cnc(CN6CC7(C6)CN(C(C)=O)C7)c(OC)n5)c4Cl)c3Cl)nc21` [compound 608]: 0.064 nM; `CCn1cc(CN2CC3(CNC(=O)C3)C2)c2ncc(-c3cccc(-c4cccc(-c5cnc(CN6CC7(CNC(=O)C7)C6)c(OC)n5)c4Cl)c3Cl)nc21` [compound 609]: 0.079 nM; `CCn1cc(CN2CC3(CCC(=O)N3)C2)c2ncc(-c3cccc(-c4cccc(-c5cnc(CN6CC7(CCC(=O)N7)C6)c(OC)n5)c4Cl)c3Cl)nc21` [compound 610]: 0.313 nM.

As for `CCn1cc(CN2CC(O)C2)c2ncc(-c3cccc(-c4cccc(-c5cnc(CN6CC(O)C6)c(OC)n5)c4Cl)c3Cl)nc21` [compound 611], the IC50 came out at 0.21 nM. Take `COc1nc(-c2cccc(-c3cccc(-c4cnc5c(CN6CC7(C6)CN(C(C)=O)C7)cn(C)c5n4)c3Cl)c2Cl)cnc1CN1CC2(C1)CN(C(C)=O)C2` [compound 612]: the IC50 was determined as 0.064 nM.

In the case of `COc1nc(-c2cccc(-c3cccc(-c4cnc5c(CN6CC7(CCC(=O)N7)C6)cn(C)c5n4)c3Cl)c2Cl)cnc1CN1CC2(CCC(=O)N2)C1` [compound 613], the IC50 was 0.182 nM. Next, `COc1nc(-c2cccc(-c3cccc(-c4cnc(CNC[C@@H]5CCC(=O)N5)c(OC)n4)c3F)c2Cl)ccc1CNC[C@@H]1CCC(=O)N1` [compound 614]: 0.079 nM; `COc1nc(-c2cccc(-c3cccc(-c4cnc(CNCCO)c(OC)n4)c3F)c2Cl)ccc1CNCCO` [compound 615]: 0.291 nM. Take `COc1nc(-c2cccc(-c3cccc(-c4cnc(CN5CC[C@@H](CO)C5)c(OC)n4)c3F)c2Cl)ccc1CN1CC[C@@H](CO)C1` [compound 616]: the IC50 was 0.069 nM. As for `COc1nc(-c2cccc(-c3cccc(-c4cnc(CN5CC6(C5)CN(C(C)=O)C6)c(OC)n4)c3F)c2Cl)ccc1CN1CC2(C1)CN(C(C)=O)C2` [compound 617], the figure is 0.064 nM; as for `COc1nc(-c2cccc(-c3cccc(-c4cnc(CN5CC6(CCC(=O)N6)C5)c(OC)n4)c3F)c2Cl)ccc1CN1CC2(CCC(=O)N2)C1` [compound 618], 0.064 nM. Next, `COc1nc(-c2cccc(-c3cccc(-c4cnc(CN5CC(O)C5)c(OC)n4)c3F)c2Cl)ccc1CN1CC(O)C1` [compound 619]: 0.178 nM; `COc1nc(-c2cccc(-c3cccc(-c4cnc(CNC[C@@H]5CCC(=O)N5)c(OC)n4)c3Cl)c2Cl)cnc1CNCCOc1ccccn1` [compound 620]: 0.101 nM; `COc1nc(-c2cccc(-c3cccc(-c4cnc(CN5CC(C)(N)C5)c(OC)n4)c3Cl)c2Cl)cnc1CN1CC(C)(N)C1` [compound 621]: 1.05 nM. For the compound `COc1nc(-c2cccc(-c3cccc(-c4cnc(CN5CC(C)(N)C5)c(OC)n4)c3Cl)c2Cl)cnc1CNC[C@@H]1CCC(=O)N1` [compound 622], the IC50 turned out to be 0.26 nM. In the case of `COc1nc(-c2cccc(-c3cccc(-c4cnc(CN5CC[C@H](CO)C5)c(OC)n4)c3Cl)c2Cl)cnc1CN1CC[C@H](CO)C1` [compound 624], the IC50 is 0.152 nM.

`COc1nc(-c2cccc(-c3cccc(-c4cnc(CN5CC[C@H](CO)C5)c(OC)n4)c3Cl)c2Cl)cnc1CNC[C@@H]1CCC(=O)N1` [compound 625]: the IC50 came out at 0.074 nM. As for `COc1nc(-c2cccc(-c3cccc(-c4cnc(CN5CC[C@@H](CO)C5)c(OC)n4)c3Cl)c2Cl)cnc1CN1CC[C@@H](CO)C1` [compound 626], the figure is 0.064 nM; as for `COc1nc(-c2cccc(-c3cccc(-c4cnc(CN5CC[C@@H](CO)C5)c(OC)n4)c3Cl)c2Cl)cnc1CNC[C@@H]1CCC(=O)N1` [compound 627], 0.081 nM; as for `COc1nc(-c2cccc(-c3cccc(-c4cc(C)c(CNC[C@@H]5CCC(=O)N5)c(OC)n4)c3Cl)c2Cl)cnc1CNC[C@@H]1CCC(=O)N1` [compound 628], 0.064 nM.

Turning to `COc1nc(-c2cccc(-c3cccc(-c4cnc(CN5CC(C)(O)C5)c(OC)n4)c3Cl)c2Cl)cnc1CN1CC(O)C1` [compound 629], the IC50 turned out to be 0.083 nM. As for `COc1nc(-c2cccc(-c3cccc(-c4cnc(CN)c(OC)n4)c3Cl)c2Cl)ccc1CNC[C@@H]1CCC(=O)N1` [compound 630], the figure is 0.437 nM. As for `COc1nc(-c2cccc(-c3cccc(-c4cnc(CN5CC(C)(O)C5)c(OC)n4)c3Cl)c2Cl)ccc1CNC[C@@H]1CCC(=O)N1` [compound 631], the figure is 0.064 nM; as for `COc1nc(-c2cccc(-c3cccc(-c4cnc(CN5CC6(C5)CN(C(C)=O)C6)c(OC)n4)c3Cl)c2Cl)ccc1CNC[C@@H]1CCC(=O)N1` [compound 632], 0.172 nM. Next, `COc1nc(-c2cccc(-c3cccc(-c4cnc(CN5CC6(CNC(=O)C6)C5)c(OC)n4)c3Cl)c2Cl)ccc1CNC[C@@H]1CCC(=O)N1` [compound 633]: 0.064 nM; `COc1nc(-c2cccc(-c3cccc(-c4cnc(CN5CCC(CO)(CO)C5)c(OC)n4)c3Cl)c2Cl)cnc1CN1CCC(CO)(CO)C1` [compound 634]: 0.064 nM. With `COc1nc(-c2cccc(-c3cccc(-c4cnc(CN5CC(C(C)(C)O)C5)c(OC5CC5)n4)c3Cl)c2Cl)ccc1CN1CC(C(C)(C)O)C1` [compound 635], the IC50 was found to be 0.098 nM. Next, `COc1nc(-c2cccc(-c3cccc(-c4cnc(CN5CC6(CCC(=O)N6)C5)c(OC5CC5)n4)c3Cl)c2Cl)ccc1CN1CC2(CCC(=O)N2)C1` [compound 636]: 0.12 nM. In the case of `COc1nc(-c2cccc(-c3cccc(-c4cnc(CN5CC6(CNC(=O)C6)C5)c(OC5CC5)n4)c3Cl)c2Cl)ccc1CN1CC2(CNC(=O)C2)C1` [compound 637], the IC50 is 0.134 nM.

For `COc1nc(-c2cccc(-c3cccc(-c4cnc(CNC[C@@H]5CCC(=O)N5)c(OC5CC5)n4)c3Cl)c2Cl)ccc1CNC[C@@H]1CCC(=O)N1` [compound 638], the IC50 turned out to be 0.079 nM. As for `COc1nc(-c2cccc(-c3cccc(-c4cnc(CN[C@H]5C[C@@H](C(N)=O)C5)c(OC)n4)c3Cl)c2Cl)ccc1CNC[C@@H]1CNC(=O)C1` [compound 639], the figure is 0.066 nM; as for `COc1nc(-c2cccc(-c3cccc(-c4cnc(CN[C@H]5CCC[C@H]5O)c(OC)n4)c3Cl)c2Cl)ccc1CNC[C@@H]1CNC(=O)C1` [compound 640], 0.167 nM. As for `COc1nc(-c2cccc(-c3cccc(-c4cnc(C5=NCCN5)c(OC)n4)c3Cl)c2Cl)ccc1CN1CC2(CCC(=O)N2)C1` [compound 641], the figure is 0.064 nM; as for `COc1nc(-c2cccc(-c3cccc(-c4cnc(C5=NCCN5)c(OC)n4)c3Cl)c2Cl)ccc1CN1CC(C)(O)C1` [compound 642], 0.064 nM. In the case of `COc1nc(-c2cccc(-c3cccc(-c4cnc(C5=NC[C@H](C)N5)c(OC)n4)c3Cl)c2Cl)ccc1CNC[C@@H]1CCC(=O)N1` [compound 643], the IC50 turned out to be 0.064 nM. Next, `COc1nc(-c2cccc(-c3cccc(-c4cnc(C5=NC[C@@H](C)N5)c(OC)n4)c3Cl)c2Cl)ccc1CNC[C@@H]1CCC(=O)N1` [compound 644]: 0.093 nM. Next, `COc1nc(-c2cccc(-c3cccc(-c4cnc(C5=NCCN5)c(OC)n4)c3Cl)c2Cl)ccc1CNC[C@@H]1CCC(=O)N1` [compound 645]: 0.064 nM. For the compound `COc1nc(-c2cccc(-c3cccc(-c4cnc(C5=NC[C@H](C)N5)c(OC)n4)c3Cl)c2Cl)cnc1CNC[C@@H]1CCC(=O)N1` [compound 646], the IC50 is 0.064 nM. Next, `COc1nc(-c2cccc(-c3cccc(-c4cnc(C5=NC[C@@H](C)N5)c(OC)n4)c3Cl)c2Cl)cnc1CNC[C@@H]1CCC(=O)N1` [compound 647]: 0.064 nM. Next, `COc1nc(-c2cccc(-c3cccc(-c4cnc(CN[C@H]5CC[C@@H](CO)C5)c(OC)n4)c3Cl)c2Cl)cnc1CNC[C@@H]1CCC(=O)N1` [compound 648]: 0.08 nM; `COc1nc(-c2cccc(-c3cccc(-c4cnc(CN5CC6(CCC(=O)N6)C5)c(OC)n4)c3Cl)c2F)ccc1CN1CC2(CCC(=O)N2)C1` [compound 649]: 0.128 nM; `COc1nc(-c2cccc(-c3cccc(-c4cc(C)c(CN5CC6(CCC(=O)N6)C5)c(OC)n4)c3F)c2Cl)cnc1CN1CC2(CCC(=O)N2)C1` [compound 650]: 0.064 nM. On to `COc1nc(-c2cccc(-c3cccc(-c4cc(C)c(CN5CC6(CNC(=O)C6)C5)c(OC)n4)c3F)c2Cl)cnc1CN1CC2(CNC(=O)C2)C1` [compound 651], for which the IC50 turned out to be 0.064 nM. Turning to `COc1nc(-c2cccc(-c3cccc(-c4cc(C)c(CNC[C@H]5C[C@H](O)C5)c(OC)n4)c3Cl)c2Cl)cnc1CNC[C@@H]1CCC(=O)N1` [compound 652], the IC50 was 0.12 nM. As for `COc1nc(-c2cccc(-c3cccc(-c4cc(C)c(CN5CC6(C5)CN(C(C)=O)C6)c(OC)n4)c3Cl)c2Cl)cnc1CNC[C@@H]1CCC(=O)N1` [compound 653], the figure is 0.064 nM.
